This is an account of results in the supplement of paper PMC10307832.

Common to all, as to experiment: relative viability (nuclei count vs DMSO), 5 days (fraction); higher = more cells survive
Compound in test [1]: C1CNCCC1C2=CC(=NN2)C3=CC=NC=C3 + CC(C)C[C@H](NC(=O)[C@H](Cc1ccccc1)NC(=O)c1cnccn1)B(O)O [Bortezomib] (partner 0.002 µM)
The gist of the method:
(§1)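 Values are medians from duplicate plates. Each reflects relative viability, defined as the nuclei count of treated wells over that of vehicle wells. Lung cancer cell lines in 1536-well plates were pin-tool dosed one day after seeding with one drug alone or with a fixed anchor-drug dose plus five library-drug doses (not always all listed) in √10 steps, then fixed, stained and imaged at 4× after 5 days.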

Compound in test [2]: C[C@@H](N)c1ccc(C(=O)Nc2ccnc3[nH]ccc23)cc1 + COc1cc2c(Oc3ccc(NC(=O)C4(C(=O)Nc5ccc(F)cc5)CC4)cc3F)ccnc2cc1OCCCN1CCOCC1 [Foretinib] (partner 0.25 µM)
The gist of the method:
as §1

Compound in test [3]: C1CNCCC1C2=CC(=NN2)C3=CC=NC=C3 + Cc1nc(Nc2ncc(C(=O)Nc3c(C)cccc3Cl)s2)cc(N2CCN(CCO)CC2)n1 [Dasatinib] (partner 0.075 µM)
The gist of the method: as §1

Compound in test [4]: C1CNCCC1C2=CC(=NN2)C3=CC=NC=C3 + N=C(N)NC(=N)NCCc1ccccc1 [Phenformin] (partner 250 µM)
The gist of the method:
as §1

Take UMC-11: the relative viability in test [1] (first compound 0.08 µM) was 0.643; in test [1] (first compound 0.8 µM) it was 0.919; in test [1] (first compound 2.53 µM) it was 0.786; in test [1] (first compound 8 µM), 0.688; in test [2] (first compound 0.04 µM) it was 1.14; in test [2] (first compound 0.1265 µM), 1.1. Also, the relative viability in test [2] (first compound 0.4 µM) worked out at 1.12; in test [2] (first compound 1.265 µM) it was 1; in test [2] (first compound 4 µM), 0.694; in test [3] (first compound 0.08 µM), 0.498; in test [3] (first compound 0.8 µM) it was 0.543; in test [3] (first compound 2.53 µM), 0.488. The relative viability in test [3] (first compound 8 µM) was determined as 0.521; in test [4] (first compound 0.08 µM), 0.325; in test [4] (first compound 0.8 µM) it was 0.209; in test [4] (first compound 2.53 µM), 0.348; in test [4] (first compound 8 µM), 0.351.
